Results: ChEMBL document CHEMBL5360657, “Discovery of the TLR7/8 Antagonist MHV370 for Treatment of Systemic Autoimmune Diseases” (ACS Med Chem Lett, 2023)

Columns and labels:
[1] = biological target: T1, Nuclear receptor subfamily 1 group I member 2 (Homo sapiens, UniProt O75469); test: Induction of PXR (unknown origin) relative to control
T1 sequence (O75469 whole entry): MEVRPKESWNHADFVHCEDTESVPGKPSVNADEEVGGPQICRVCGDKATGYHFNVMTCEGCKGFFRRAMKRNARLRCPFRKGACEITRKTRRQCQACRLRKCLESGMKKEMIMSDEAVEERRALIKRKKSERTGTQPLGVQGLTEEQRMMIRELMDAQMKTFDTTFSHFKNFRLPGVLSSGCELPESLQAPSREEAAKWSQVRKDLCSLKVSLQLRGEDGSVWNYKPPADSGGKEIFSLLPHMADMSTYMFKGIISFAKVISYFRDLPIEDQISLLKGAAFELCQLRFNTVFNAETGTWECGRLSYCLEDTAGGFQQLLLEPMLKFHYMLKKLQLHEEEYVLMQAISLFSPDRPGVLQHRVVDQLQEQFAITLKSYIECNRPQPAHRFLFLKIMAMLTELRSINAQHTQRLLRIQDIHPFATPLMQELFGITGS

[2] = Oral bioavailability in mouse at 20 mg/kg; type: ADME, organism-based; conditions: in vivo
[3] = Volume of distribution at steady state in mouse at 3 mg/kg, iv; type: ADME, organism-based; conditions: in vivo, read-out: Vdss
[4] = biological target: Toll-like receptor 7 (Mus musculus) (UniProt P58681); test: In vivo antagonist activity against TLR7 in po dosed mouse assessed as suppression of IFN alpha level measured at 3 hrs by LC-MS/MS analysis; conditions: dose 1-30 mg/kg
Toll-like receptor 9 [5] = biological target: T2, Toll-like receptor 9 (Mus musculus, UniProt Q9EQU3); test: Antagonist activity at TLR9 in mouse Whole blood cell assessed as reduction in IFN-alpha level measured after 20 hrs by AlphaLISA method; type: tissue-based
T2 sequence (Q9EQU3 whole entry): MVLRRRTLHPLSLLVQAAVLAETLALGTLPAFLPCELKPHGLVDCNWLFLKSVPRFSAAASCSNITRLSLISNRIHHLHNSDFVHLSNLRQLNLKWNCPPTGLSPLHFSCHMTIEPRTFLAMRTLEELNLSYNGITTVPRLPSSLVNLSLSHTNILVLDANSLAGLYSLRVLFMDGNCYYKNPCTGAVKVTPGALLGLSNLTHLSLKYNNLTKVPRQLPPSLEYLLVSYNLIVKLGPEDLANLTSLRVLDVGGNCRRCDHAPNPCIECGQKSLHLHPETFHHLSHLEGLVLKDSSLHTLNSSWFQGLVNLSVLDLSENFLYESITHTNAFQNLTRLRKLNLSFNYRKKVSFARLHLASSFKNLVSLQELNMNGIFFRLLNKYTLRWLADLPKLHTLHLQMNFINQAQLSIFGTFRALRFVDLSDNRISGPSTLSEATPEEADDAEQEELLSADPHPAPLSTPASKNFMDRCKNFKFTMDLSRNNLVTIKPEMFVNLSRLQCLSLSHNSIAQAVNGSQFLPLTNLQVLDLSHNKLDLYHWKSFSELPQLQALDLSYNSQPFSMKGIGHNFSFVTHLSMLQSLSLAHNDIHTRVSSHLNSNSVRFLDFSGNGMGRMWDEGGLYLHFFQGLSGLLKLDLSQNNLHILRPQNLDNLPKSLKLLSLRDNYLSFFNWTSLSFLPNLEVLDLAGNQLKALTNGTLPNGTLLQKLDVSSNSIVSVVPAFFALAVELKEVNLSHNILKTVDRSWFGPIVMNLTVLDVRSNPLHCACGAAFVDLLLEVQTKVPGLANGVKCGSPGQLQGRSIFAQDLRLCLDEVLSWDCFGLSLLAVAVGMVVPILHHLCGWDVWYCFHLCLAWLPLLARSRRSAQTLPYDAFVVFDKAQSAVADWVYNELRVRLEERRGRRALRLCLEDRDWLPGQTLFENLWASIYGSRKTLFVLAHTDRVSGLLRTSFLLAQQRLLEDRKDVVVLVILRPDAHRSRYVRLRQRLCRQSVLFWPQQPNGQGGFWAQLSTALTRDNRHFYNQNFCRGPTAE

Toll-like receptor 4 = Toll-like receptor 4 (Homo sapiens, UniProt O00206); test: Antagonist activity at TLR4 in human Whole blood cell assessed as reduction in IL-6 level measured after 30 mins; type: tissue-based
Toll-like receptor 9 [6] = biological target: T2, Toll-like receptor 9; test: Antagonist activity at TLR9 in mouse Splenocyte assessed as reduction in IFN-alpha level measured after 20 hrs by Spectramax M5 method; type: cell-based
Toll-like receptor 7 = biological target: T3, Toll-like receptor 7 (Mus musculus, UniProt P58681); test: Antagonist activity at TLR7 in mouse Whole blood cell assessed as reduction in IFN-alpha level measured after 20 hrs by AlphaLISA method; type: tissue-based
T3 sequence (P58681 whole entry): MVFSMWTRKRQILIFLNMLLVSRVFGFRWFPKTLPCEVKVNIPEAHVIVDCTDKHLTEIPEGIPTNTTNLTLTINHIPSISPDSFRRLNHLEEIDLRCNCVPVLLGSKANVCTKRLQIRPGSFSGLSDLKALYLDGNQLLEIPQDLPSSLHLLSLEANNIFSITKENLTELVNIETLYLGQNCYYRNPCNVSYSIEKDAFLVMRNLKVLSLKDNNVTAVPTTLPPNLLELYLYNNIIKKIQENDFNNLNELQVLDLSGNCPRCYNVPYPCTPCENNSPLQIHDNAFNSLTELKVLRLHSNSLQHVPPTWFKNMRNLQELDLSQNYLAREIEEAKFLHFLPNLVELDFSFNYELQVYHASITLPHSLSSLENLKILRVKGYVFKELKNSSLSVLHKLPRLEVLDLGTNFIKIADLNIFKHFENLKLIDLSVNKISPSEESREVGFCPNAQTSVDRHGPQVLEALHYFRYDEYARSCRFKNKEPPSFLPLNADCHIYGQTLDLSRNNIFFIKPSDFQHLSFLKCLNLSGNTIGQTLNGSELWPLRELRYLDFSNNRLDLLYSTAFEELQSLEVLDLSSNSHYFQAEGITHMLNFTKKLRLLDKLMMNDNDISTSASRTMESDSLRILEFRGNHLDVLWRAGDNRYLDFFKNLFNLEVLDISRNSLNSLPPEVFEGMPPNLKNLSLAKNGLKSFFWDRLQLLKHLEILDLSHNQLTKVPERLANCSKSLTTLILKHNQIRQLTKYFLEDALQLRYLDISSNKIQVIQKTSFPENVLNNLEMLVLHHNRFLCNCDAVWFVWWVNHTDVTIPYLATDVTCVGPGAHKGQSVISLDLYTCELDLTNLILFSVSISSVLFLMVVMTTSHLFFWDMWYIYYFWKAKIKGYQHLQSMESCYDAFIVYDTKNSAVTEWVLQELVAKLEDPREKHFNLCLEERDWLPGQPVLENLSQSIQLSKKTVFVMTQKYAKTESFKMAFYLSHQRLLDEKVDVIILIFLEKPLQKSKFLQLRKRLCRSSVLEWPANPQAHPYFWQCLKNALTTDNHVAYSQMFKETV

Toll-like receptor 4, sequence (O00206 whole entry): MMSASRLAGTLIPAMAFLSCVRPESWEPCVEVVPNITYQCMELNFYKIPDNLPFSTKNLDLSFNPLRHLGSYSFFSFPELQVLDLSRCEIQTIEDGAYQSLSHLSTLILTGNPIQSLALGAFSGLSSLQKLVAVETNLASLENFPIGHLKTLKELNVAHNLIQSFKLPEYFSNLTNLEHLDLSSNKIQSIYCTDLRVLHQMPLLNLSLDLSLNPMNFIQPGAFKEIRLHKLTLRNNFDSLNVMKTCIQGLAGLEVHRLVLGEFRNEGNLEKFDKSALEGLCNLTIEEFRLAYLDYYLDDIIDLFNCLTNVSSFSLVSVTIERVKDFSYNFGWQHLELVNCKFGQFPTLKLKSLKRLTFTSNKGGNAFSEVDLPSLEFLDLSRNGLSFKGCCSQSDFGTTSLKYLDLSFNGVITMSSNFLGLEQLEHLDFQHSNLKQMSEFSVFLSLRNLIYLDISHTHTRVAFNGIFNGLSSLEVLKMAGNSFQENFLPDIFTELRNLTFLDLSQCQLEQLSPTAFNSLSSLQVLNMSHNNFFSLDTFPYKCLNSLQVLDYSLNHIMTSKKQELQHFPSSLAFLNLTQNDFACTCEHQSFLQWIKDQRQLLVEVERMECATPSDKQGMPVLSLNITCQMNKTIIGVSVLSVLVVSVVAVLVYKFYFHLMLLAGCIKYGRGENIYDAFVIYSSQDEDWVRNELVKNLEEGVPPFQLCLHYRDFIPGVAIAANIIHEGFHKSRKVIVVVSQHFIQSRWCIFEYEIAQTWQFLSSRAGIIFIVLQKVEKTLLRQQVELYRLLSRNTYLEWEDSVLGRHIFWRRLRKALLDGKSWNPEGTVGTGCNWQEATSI

| Compound | Activity [1] [%] | bioavailability [2] [%] | Vd [3] [L/kg] | Activity [4] | IC50 (Toll-like receptor 9 [5]) [nM] | IC50 (Toll-like receptor 4) [nM] | IC50 (Toll-like receptor 9 [6]) [nM] | IC50 (Toll-like receptor 7) [nM] |
| --- | --- | --- | --- | --- | --- | --- | --- | --- |
| Cc1cc(N2CCc3c(c(C)nn3CC34CCC(N)(CC3)CC4)C2)c2cnn(C)c2n1 | 7.9 | 4 | 4.1 |  |  |  |  |  |
| Cc1cc(N2CCc3c(c(C)nn3CC34CCC(NC(=O)[C@@H]5COCCN5)(CC3)CC4)C2)c2cnn(C)c2n1 [MHV-370] |  |  |  | Dose-Dependent Effect | > 10000 | > 10000 | > 1000 | 51 |
